≈ marks a conversion by molar mass, not a printed value. *1 amine or outer side, *2 acyl side, *3 side chain or, on linkers, in order; H or OH if unused. Where a SMILES comes first, the peptide text is derived from it. Bridges are numbered along the chain shown (N, C = ends). [ ]: non-standard residue; d: D form. The star is where a group is joined. ξ: configuration not given here. ξOrn(4R-OH,5R-OH) = O=C(C(C[C@@H](O)[C@@H](O)N[*:3])N[*:1])[*:2]; hTyr(3S-OH,4S-OH) = N[C@H](C(=O)O)[C@H](O)[C@@H](O)c1ccc(O)cc1; Orn(3R-OH) = NCC[C@@H](O)[C@H](N)C(=O)O; X2 = O=C(C1CN([*:1])C[C@@H]1O)[*:2]; ξPro(4R-OH) = O=C(O)C1C[C@@H](O)CN1; X1 = CCC(C)CC(C)CCCCCCCCC(=O)*
Assays:
[1] = Acute toxicity in mice after intravenous administration; details: mouse, in vivo
Clavispora lusitaniae [2] = experiment: Tested for in vitro minimum fungicidal concentration (MFC) against C. lusitaniae; 0.06-0.5; format: functional
Candida parapsilosis [3] = experiment: Tested for in vitro minimum fungicidal concentration (MFC) against C. parapsilosis; 0.25-1; format: functional
Mus musculus [4] = organism: Mus musculus; experiment: Percentage of mice with complete eradication of candida in kidneys; format: functional, Kidney
Mus musculus [5] = organism: Mus musculus; experiment: […] anti-candida activity expressed as ED99.9 in a mouse model of disseminated candidiasis (TOKA); format: functional
Mus musculus [6] = experiment: In vivo effective intraperitoneal dose to achieve least 50% survival in a mouse model of disseminated aspergillosis; format: functional; details: ip
Nakaseomyces glabratus [7] = experiment: Tested for in vitro minimum fungicidal concentration (MFC) against C. glabrata; 0.5-1; format: functional
Cryptococcus neoformans [8] = experiment: Tested for in vitro minimum fungicidal concentration (MFC) against C. neoformans; 8-32; format: functional
1,3-beta-glucan synthase = 1,3-beta-glucan synthase (Candida glabrata, UniProt F5BCZ9); experiment: Inhibition of 1,3-beta-glucan synthase; set-up: species or system Candida glabrata CBS 138
Candida albicans [9] = experiment: Tested for minimum fungicidal concentration (MFC) against Candida albicans (MY 1055); format: functional
Candida albicans [10] = experiment: Tested for in vitro minimum fungicidal concentration (MFC) against C. albicans; 0.03-0.5; format: functional
Candida tropicalis [11] = experiment: Tested for in vitro minimum fungicidal concentration (MFC) against C. tropicalis; 0.06-1; format: functional
Pichia kudriavzevii [12] = experiment: Tested for in vitro minimum fungicidal concentration (MFC) against C. krusei; 1-2; format: functional
[13] = system: Meyerozyma guilliermondii; experiment: Tested for in vitro minimum fungicidal concentration (MFC) against C. guilliermondii; 0.5-4; format: functional
Kluyveromyces marxianus [14] = experiment: Tested for in vitro minimum fungicidal concentration (MFC) against C. pseudotropicalis; 0.06-0.5; format: functional
[15] = system: Meyerozyma guilliermondii; experiment: Tested for in vitro minimum fungicidal concentration (MFC) against C. guilliermondii; 0.125-0.5; format: functional
Pichia kudriavzevii [16] = experiment: Tested for in vitro minimum fungicidal concentration (MFC) against C. krusei; 0.25-0.5; format: functional
Nakaseomyces glabratus [17] = experiment: Tested for in vitro minimum fungicidal concentration (MFC) against C. glabrata; 0.125-0.5; format: functional
Candida parapsilosis [18] = experiment: Tested for in vitro minimum fungicidal concentration (MFC) against C. parapsilosis; 0.5-1; format: functional
Candida albicans [19] = experiment: Tested for in vitro minimum fungicidal concentration (MFC) against C. albicans; 0.06-0.5; format: functional
Clavispora lusitaniae [20] = experiment: Tested for in vitro minimum fungicidal concentration (MFC) against C. lusitaniae; 0.5-2; format: functional
Kluyveromyces marxianus [21] = experiment: Tested for in vitro minimum fungicidal concentration (MFC) against C. pseudotropicalis; 0.125-0.5; format: functional
Candida tropicalis [22] = experiment: Tested for in vitro minimum fungicidal concentration (MFC) against C. tropicalis; 0.25-0.5; format: functional
Cryptococcus neoformans [23] = experiment: Tested for in vitro minimum fungicidal concentration (MFC) against C. neoformans; 0.125-0.5; format: functional
Candida albicans [24] = experiment: Tested for in vitro minimum fungicidal concentration (MFC) against C. albicans; 0.25-1; format: functional
Nakaseomyces glabratus [25] = experiment: Tested for in vitro minimum fungicidal concentration (MFC) against C. glabrata; 1-4; format: functional
Clavispora lusitaniae [26] = experiment: Tested for in vitro minimum fungicidal concentration (MFC) against Candida lusitaniae 0.125-1; format: functional
[27] = system: Meyerozyma guilliermondii; experiment: Tested for in vitro minimum fungicidal concentration (MFC) against Candida guilliermondii 1-16; format: functional
Kluyveromyces marxianus [28] = experiment: Tested for in vitro minimum fungicidal concentration (MFC) againstC. pseudotropicalis; 0.25-1; format: functional
Candida tropicalis [29] = experiment: Tested for in vitro minimum fungicidal concentration (MFC) against C. tropicalis; 0.25-1; format: functional
Pichia kudriavzevii [30] = experiment: Tested for in vitro minimum fungicidal concentration (MFC) against C. krusei; 2-4; format: functional

Sequence of 1,3-beta-glucan synthase (F5BCZ9 whole entry): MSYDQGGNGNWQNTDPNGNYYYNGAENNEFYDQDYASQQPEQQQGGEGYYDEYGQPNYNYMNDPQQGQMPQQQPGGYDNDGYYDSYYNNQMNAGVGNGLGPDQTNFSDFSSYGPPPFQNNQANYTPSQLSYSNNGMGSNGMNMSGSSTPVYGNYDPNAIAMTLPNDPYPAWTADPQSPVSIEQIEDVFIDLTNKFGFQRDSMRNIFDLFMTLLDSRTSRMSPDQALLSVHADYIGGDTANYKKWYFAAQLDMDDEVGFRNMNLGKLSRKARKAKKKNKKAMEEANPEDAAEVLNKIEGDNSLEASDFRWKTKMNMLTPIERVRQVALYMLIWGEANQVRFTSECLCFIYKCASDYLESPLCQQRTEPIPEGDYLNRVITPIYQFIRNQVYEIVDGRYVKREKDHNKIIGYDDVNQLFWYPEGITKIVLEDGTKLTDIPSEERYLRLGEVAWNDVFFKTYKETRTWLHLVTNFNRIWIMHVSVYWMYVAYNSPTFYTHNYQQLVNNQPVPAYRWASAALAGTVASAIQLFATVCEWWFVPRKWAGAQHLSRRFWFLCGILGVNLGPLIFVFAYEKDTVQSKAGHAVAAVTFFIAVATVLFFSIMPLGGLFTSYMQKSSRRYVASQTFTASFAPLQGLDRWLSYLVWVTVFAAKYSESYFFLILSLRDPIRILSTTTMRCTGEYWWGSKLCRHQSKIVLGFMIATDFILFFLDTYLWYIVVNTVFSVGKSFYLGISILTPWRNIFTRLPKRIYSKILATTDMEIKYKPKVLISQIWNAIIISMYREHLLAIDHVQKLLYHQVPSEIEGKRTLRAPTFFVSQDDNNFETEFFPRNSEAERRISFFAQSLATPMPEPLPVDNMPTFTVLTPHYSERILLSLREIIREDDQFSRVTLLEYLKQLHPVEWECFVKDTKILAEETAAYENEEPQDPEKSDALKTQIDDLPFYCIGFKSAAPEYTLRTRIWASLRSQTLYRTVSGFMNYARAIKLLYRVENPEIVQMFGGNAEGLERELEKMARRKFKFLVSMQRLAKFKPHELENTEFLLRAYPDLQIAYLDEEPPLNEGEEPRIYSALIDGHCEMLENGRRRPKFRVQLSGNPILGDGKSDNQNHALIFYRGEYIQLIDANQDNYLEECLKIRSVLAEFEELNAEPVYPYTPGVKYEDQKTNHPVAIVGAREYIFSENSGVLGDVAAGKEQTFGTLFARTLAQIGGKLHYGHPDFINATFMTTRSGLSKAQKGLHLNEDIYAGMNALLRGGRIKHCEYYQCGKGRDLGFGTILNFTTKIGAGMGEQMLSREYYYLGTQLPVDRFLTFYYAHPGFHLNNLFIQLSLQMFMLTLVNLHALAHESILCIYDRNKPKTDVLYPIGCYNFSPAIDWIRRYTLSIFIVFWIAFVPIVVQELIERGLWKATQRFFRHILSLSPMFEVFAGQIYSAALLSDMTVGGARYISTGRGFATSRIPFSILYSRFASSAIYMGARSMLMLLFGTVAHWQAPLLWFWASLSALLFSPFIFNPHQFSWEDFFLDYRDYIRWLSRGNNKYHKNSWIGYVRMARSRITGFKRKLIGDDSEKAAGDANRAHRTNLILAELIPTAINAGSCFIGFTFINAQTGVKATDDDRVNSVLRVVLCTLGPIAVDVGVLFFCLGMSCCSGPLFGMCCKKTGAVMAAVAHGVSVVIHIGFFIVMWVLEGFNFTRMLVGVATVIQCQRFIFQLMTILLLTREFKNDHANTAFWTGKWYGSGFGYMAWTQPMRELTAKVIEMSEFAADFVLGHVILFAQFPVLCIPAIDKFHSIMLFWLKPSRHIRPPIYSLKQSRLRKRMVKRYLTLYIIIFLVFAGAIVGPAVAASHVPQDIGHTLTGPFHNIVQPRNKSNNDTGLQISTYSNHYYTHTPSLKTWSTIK

SMILES	Dose [1] [mg/kg]	Sterilized (Mus musculus [4]) [%]	ED99.9 (Mus musculus [5]) [mg/kg]	ED50 (Mus musculus [6]) [mg/kg]	IC50 (1,3-beta-glucan synthase) [nM]	MFC (Candida albicans [9]) [µg/mL]	further results
CCC(C)CC(C)CCCCCCCCC(=O)NC1C[C@@H](O)[C@@H](OCCN)NC(=O)C2CN(C[C@@H]2O)C(=O)[C@H]([C@H](O)CCN)NC(=O)[C@H]([C@H](O)[C@@H](O)c2ccc(O)cc2)NC(=O)C2C[C@@H](O)CN2C(=O)[C@H]([C@@H](C)O)NC1=O (stereo partly drawn)	30	80	0.09	0.03	1	0.125 (≈ 0.114 µM)	MFC90 (Clavispora lusitaniae [2]): 0.5 µg/mL (≈ 0.457 µM); MFC90 (Candida parapsilosis [3]): 0.5 µg/mL (≈ 0.457 µM); MFC90 (Nakaseomyces glabratus [7]): 1 µg/mL (≈ 0.914 µM); MFC90 (Cryptococcus neoformans [8]): 32 µg/mL (≈ 29.2 µM); MFC90 (Candida albicans [10]): 0.5 µg/mL (≈ 0.457 µM); MFC90 (Candida tropicalis [11]): 0.5 µg/mL (≈ 0.457 µM); MFC90 (Pichia kudriavzevii [12]): 1 µg/mL (≈ 0.914 µM); MFC90 [13]: 4 µg/mL (≈ 3.66 µM); MFC90 (Kluyveromyces marxianus [14]): 0.5 µg/mL (≈ 0.457 µM)
C[C@@H]1[C@H](O)[C@@H](C)/C=C/C=C/C=C/C=C/C=C/C=C/C=C/[C@H](O[C@@H]2O[C@H](C)[C@@H](O)[C@H](N)[C@@H]2O)C[C@@H]2O[C@](O)(C[C@@H](O)C[C@@H](O)[C@H](O)CC[C@@H](O)C[C@@H](O)CC(=O)O[C@H]1C)C[C@H](O)[C@H]2C(=O)O [AMPHOTERICIN B]							MFC90 [15]: 0.5 µg/mL (≈ 0.541 µM); MFC90 (Pichia kudriavzevii [16]): 0.5 µg/mL (≈ 0.541 µM); MFC90 (Nakaseomyces glabratus [17]): 0.5 µg/mL (≈ 0.541 µM); MFC90 (Candida parapsilosis [18]): 1 µg/mL (≈ 1.08 µM); MFC90 (Candida albicans [19]): 0.25 µg/mL (≈ 0.271 µM); MFC90 (Clavispora lusitaniae [20]): 2 µg/mL (≈ 2.16 µM); MFC90 (Kluyveromyces marxianus [21]): 0.5 µg/mL (≈ 0.541 µM); MFC90 (Candida tropicalis [22]): 0.5 µg/mL (≈ 0.541 µM); MFC90 (Cryptococcus neoformans [23]): 0.5 µg/mL (≈ 0.541 µM)
CCC(C)CC(C)CCCCCCCCC(=O)NC1C[C@@H](O)[C@@H](OCCN)NC(=O)C2CN(C[C@@H]2O)C(=O)[C@H]([C@H](O)CCNC(=O)[C@@H](N)CN)NC(=O)[C@H]([C@H](O)[C@@H](O)c2ccc(O)cc2)NC(=O)C2C[C@@H](O)CN2C(=O)[C@H]([C@@H](C)O)NC1=O (stereo partly drawn)	> 100	100	0.375	0.07	4	1 (≈ 0.847 µM)	
CCC(C)CC(C)CCCCCCCCC(=O)NC1C[C@@H](O)[C@@H](O)NC(=O)C2CN(C[C@@H]2O)C(=O)[C@H]([C@H](O)CCN)NC(=O)[C@H]([C@H](O)[C@@H](O)c2ccc(O)cc2)NC(=O)C2C[C@@H](O)CN2C(=O)[C@H]([C@@H](C)O)NC1=O (stereo partly drawn) (X1-[ξOrn(4R-OH,5R-OH)]T[ξPro(4R-OH)][hTyr(3S-OH,4S-OH)][Orn(3R-OH)][X2]; lactam 1-C)	100	70	0.375	> 20	10	< 0.06	
CCC(C)CC(C)CCCCCCCCC(=O)NC1C[C@@H](O)[C@@H](OCCN)NC(=O)C2CN(C[C@@H]2O)C(=O)[C@H]([C@H](O)CCNC(=O)[C@@H](N)CCCCN)NC(=O)[C@H]([C@H](O)[C@@H](O)c2ccc(O)cc2)NC(=O)C2C[C@@H](O)CN2C(=O)[C@H]([C@@H](C)O)NC1=O (stereo partly drawn)	60	0	0.09	< 0.02	3	0.125 (≈ 0.102 µM)	
CCC(C)CC(C)CCCCCCCCC(=O)NC1C[C@@H](O)[C@@H](O)NC(=O)C2CN(C[C@@H]2O)C(=O)[C@H]([C@H](O)CCNC(=O)CCN)NC(=O)[C@H]([C@H](O)[C@@H](O)c2ccc(O)cc2)NC(=O)C2C[C@@H](O)CN2C(=O)[C@H]([C@@H](C)O)NC1=O (stereo partly drawn)	250	100	1.5		25	0.125 (≈ 0.111 µM)	
CCC(C)CC(C)CCCCCCCCC(=O)NC1C[C@@H](O)[C@@H](O)NC(=O)C2CN(C[C@@H]2O)C(=O)[C@H]([C@H](O)CCNC(=O)[C@@H](N)CCCCN)NC(=O)[C@H]([C@H](O)[C@@H](O)c2ccc(O)cc2)NC(=O)C2C[C@@H](O)CN2C(=O)[C@H]([C@@H](C)O)NC1=O (stereo partly drawn)	150	20	0.375		10	< 0.06	
CCC(C)CC(C)CCCCCCCCC(=O)NC1C[C@@H](O)[C@@H](O)NC(=O)C2CN(C[C@@H]2O)C(=O)[C@H]([C@H](O)CCNC(=O)[C@@H](N)CN)NC(=O)[C@H]([C@H](O)[C@@H](O)c2ccc(O)cc2)NC(=O)C2C[C@@H](O)CN2C(=O)[C@H]([C@@H](C)O)NC1=O (stereo partly drawn)	> 250	100	1.5	> 1.25	30	1 (≈ 0.879 µM)	
CCC(C)CC(C)CCCCCCCCC(=O)NC1C[C@@H](O)[C@@H](OCCN)NC(=O)C2CN(C[C@@H]2O)C(=O)[C@H]([C@H](O)CCNC(=O)[C@@H](N)CCCN)NC(=O)[C@H]([C@H](O)[C@@H](O)c2ccc(O)cc2)NC(=O)C2C[C@@H](O)CN2C(=O)[C@H]([C@@H](C)O)NC1=O (stereo partly drawn)	80	70	0.09	0.03	1.5	< 0.06	MFC90 (Candida albicans [24]): 1 µg/mL (≈ 0.827 µM); MFC90 (Candida parapsilosis [3]): 1 µg/mL (≈ 0.827 µM); MFC90 (Nakaseomyces glabratus [25]): 2 µg/mL (≈ 1.65 µM); MFC90 (Cryptococcus neoformans [8]): 32 µg/mL (≈ 26.5 µM); MFC90 (Clavispora lusitaniae [26]): 0.5 µg/mL (≈ 0.414 µM); MFC90 [27]: 8 µg/mL (≈ 6.62 µM); MFC90 (Kluyveromyces marxianus [28]): 1 µg/mL (≈ 0.827 µM); MFC90 (Candida tropicalis [29]): 1 µg/mL (≈ 0.827 µM); MFC90 (Pichia kudriavzevii [30]): 4 µg/mL (≈ 3.31 µM)
CCC(C)CC(C)CCCCCCCCC(=O)NC1C[C@@H](O)[C@@H](O)NC(=O)C2CN(C[C@@H]2O)C(=O)[C@H]([C@H](O)CCNC(=O)[C@@H](N)CCN)NC(=O)[C@H]([C@H](O)[C@@H](O)c2ccc(O)cc2)NC(=O)C2C[C@@H](O)CN2C(=O)[C@H]([C@@H](C)O)NC1=O (stereo partly drawn)	> 250	60	0.375		60	0.25 (≈ 0.217 µM)	
